Results taken from paper PMC3433420 (PLoS ONE, 2012).
Residues, ends and D or L forms follow the SMILES beside them.

What was measured:
VAV2 SH2 domain = VAV2 SH2 domain (Homo sapiens, UniProt P52735); test: FP saturation binding assay
PIK3R2-N SH2 domain = PIK3R2-N SH2 domain (Homo sapiens, UniProt O00459); test: FP saturation binding assay
SH2D2A SH2 domain = SH2D2A SH2 domain (Homo sapiens, UniProt Q9NP31); test: FP saturation binding assay
PLCG1-N SH2 domain = PLCG1-N SH2 domain (Homo sapiens, UniProt P19174); test: FP saturation binding assay
Sequence of PLCG1-N SH2 domain (P19174 550-657 limits assumed): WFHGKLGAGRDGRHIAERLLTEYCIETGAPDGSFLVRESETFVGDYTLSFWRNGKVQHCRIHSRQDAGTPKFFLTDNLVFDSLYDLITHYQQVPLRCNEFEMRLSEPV

BLK SH2 domain = BLK SH2 domain (Homo sapiens, UniProt P51451); test: FP saturation binding assay
Sequence of BLK SH2 domain (P51451 124-220 limits assumed): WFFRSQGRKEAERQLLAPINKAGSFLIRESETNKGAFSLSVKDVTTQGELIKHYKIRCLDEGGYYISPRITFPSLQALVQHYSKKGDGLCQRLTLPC

[1] = molecular target: PLCG2-NC tandem SH2 domains (Homo sapiens, UniProt P16885); test: FP saturation binding assay
Sequence of PLCG2-NC tandem SH2 domains (P16885 532-735 limits assumed): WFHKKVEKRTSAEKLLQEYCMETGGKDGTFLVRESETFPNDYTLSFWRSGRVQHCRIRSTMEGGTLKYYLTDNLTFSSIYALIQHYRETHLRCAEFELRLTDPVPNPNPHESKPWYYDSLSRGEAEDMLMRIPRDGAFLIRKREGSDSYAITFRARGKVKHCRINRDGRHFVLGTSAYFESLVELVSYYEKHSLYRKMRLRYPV

LCP2 SH2 domain = LCP2 SH2 domain (Homo sapiens, UniProt Q13094); test: FP saturation binding assay
Sequence of LCP2 SH2 domain (Q13094 422-530 limits assumed): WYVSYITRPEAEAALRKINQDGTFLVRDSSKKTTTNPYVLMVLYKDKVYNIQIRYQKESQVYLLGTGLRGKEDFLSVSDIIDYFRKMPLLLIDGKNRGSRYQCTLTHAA

SH2 and PTB domains [2] = molecular target: T1, SH2 and PTB domains (Homo sapiens, UniProt P06239); test: In-house protein microarrays (with or without 5 mM DTT), protein named per line; format: binding; conditions: protein LCK
T1 construct: thioredoxin; made in house; host or cells: BL21(DE3)pLysS E. coli
T1 sequence (P06239 whole entry, the tested form may be a part): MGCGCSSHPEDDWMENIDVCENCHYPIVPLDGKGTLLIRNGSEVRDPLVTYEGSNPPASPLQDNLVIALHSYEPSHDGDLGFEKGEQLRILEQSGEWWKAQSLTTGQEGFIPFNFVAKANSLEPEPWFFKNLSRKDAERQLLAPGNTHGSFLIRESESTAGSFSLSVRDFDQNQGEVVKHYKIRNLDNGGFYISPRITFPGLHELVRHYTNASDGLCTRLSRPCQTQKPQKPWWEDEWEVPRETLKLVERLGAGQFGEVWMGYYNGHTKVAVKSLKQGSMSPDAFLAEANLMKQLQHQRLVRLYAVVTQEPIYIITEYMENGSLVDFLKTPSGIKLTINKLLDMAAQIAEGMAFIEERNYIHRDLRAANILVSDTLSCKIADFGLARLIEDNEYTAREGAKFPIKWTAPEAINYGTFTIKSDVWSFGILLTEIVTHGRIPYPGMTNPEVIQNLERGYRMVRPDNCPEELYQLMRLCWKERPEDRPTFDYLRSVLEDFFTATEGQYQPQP
In short: (§1)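 Recombinant domains (~40 µM) spotted in duplicate on aldehyde slides, quenched 1 h at room temperature in HEPES/KCl/Tween-20 buffer pH 7.8 with 5 mM DTT and 1% BSA, then probed with rhodamine-labeled peptide. Thioredoxin-subtracted mean fluorescence fitted for KD.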

SH2 and PTB domains [3] = molecular target: T2, SH2 and PTB domains (Homo sapiens, UniProt Q06124); test: as above; format: binding; conditions: protein PTPN11-NC, array fabrication # 39329
T2 construct: thioredoxin; made in house; host or cells: BL21(DE3)pLysS E. coli
T2 sequence (Q06124 whole entry, the tested form may be a part): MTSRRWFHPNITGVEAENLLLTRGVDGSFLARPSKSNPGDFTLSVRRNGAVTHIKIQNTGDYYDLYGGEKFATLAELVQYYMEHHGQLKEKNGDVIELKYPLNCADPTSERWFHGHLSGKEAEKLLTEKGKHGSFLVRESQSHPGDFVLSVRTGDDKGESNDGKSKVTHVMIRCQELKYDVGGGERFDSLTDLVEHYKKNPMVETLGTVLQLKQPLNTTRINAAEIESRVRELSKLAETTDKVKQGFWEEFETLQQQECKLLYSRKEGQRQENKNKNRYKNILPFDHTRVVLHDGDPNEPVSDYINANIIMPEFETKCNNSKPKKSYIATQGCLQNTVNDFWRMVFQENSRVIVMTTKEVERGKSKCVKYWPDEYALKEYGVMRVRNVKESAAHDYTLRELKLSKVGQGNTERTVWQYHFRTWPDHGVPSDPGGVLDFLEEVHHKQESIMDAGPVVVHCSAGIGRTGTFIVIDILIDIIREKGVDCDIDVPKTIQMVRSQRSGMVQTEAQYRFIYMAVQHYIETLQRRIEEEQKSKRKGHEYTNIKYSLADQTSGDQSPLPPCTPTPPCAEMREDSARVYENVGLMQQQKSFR
In short: as §1

SH2 and PTB domains [4] = molecular target: T3, SH2 and PTB domains (Homo sapiens, UniProt P15498); test: as above; format: binding; conditions: protein VAV1, array fabrication # 39329
T3 construct: thioredoxin; made in house; host or cells: BL21(DE3)pLysS E. coli
T3 sequence (P15498 whole entry, the tested form may be a part): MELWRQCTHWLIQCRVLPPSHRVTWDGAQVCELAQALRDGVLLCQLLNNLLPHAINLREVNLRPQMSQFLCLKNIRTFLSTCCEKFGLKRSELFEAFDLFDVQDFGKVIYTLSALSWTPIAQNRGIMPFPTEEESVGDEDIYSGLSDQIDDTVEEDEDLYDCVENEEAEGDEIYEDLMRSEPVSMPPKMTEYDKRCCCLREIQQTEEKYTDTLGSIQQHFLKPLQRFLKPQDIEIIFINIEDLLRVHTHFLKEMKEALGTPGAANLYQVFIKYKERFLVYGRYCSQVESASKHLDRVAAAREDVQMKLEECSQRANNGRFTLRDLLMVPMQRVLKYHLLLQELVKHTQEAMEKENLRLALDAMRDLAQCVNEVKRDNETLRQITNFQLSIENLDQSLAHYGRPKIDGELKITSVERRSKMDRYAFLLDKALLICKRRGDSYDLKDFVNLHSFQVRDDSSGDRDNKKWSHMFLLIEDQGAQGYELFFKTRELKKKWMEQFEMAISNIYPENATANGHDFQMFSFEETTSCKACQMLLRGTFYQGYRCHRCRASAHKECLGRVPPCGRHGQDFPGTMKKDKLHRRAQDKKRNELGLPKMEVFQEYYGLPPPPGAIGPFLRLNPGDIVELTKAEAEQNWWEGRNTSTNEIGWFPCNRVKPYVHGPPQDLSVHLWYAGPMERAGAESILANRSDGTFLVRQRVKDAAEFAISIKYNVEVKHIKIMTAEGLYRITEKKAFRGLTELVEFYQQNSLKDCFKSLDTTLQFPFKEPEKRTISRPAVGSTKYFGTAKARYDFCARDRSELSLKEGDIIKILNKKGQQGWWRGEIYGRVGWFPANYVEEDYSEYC
In short: as §1

BLNK SH2 domain = BLNK SH2 domain (Homo sapiens, UniProt Q8WV28); test: FP saturation binding assay
Sequence of BLNK SH2 domain (Q8WV28 346-453 limits assumed): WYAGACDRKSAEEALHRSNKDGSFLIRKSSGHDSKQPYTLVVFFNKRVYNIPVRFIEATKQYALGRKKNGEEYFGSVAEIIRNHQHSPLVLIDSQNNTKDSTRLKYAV

NCK2 SH2 domain = NCK2 SH2 domain (Homo sapiens, UniProt O43639); test: FP saturation binding assay
Sequence of NCK2 SH2 domain (O43639 285-380 limits assumed): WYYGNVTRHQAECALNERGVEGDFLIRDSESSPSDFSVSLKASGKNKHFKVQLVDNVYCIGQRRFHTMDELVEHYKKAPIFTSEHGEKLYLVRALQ

VAV1 SH2 domain = VAV1 SH2 domain (Homo sapiens, UniProt P15498); test: FP saturation binding assay
Sequence of VAV1 SH2 domain (P15498 671-765 limits assumed): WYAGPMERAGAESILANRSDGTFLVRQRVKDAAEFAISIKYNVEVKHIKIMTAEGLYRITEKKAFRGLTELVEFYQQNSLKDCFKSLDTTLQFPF

[5] = molecular target: SYK-NC tandem SH2 domains (Homo sapiens, UniProt P43405); test: FP saturation binding assay
SHC1 SH2 domain = SHC1 SH2 domain (Homo sapiens, UniProt P29353); test: FP saturation binding assay
Sequence of SHC1 SH2 domain (P29353 488-579 limits assumed): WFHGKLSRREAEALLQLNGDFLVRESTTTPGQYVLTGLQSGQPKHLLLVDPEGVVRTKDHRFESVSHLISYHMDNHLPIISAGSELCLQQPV

STAP1 SH2 domain = STAP1 SH2 domain (Homo sapiens, UniProt Q9ULZ2); test: FP saturation binding assay
Sequence of STAP1 SH2 domain (Q9ULZ2 177-280 limits assumed): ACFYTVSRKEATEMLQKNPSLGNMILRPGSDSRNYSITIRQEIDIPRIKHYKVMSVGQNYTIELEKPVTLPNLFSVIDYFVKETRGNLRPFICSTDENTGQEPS

GRB2 SH2 domain = GRB2 SH2 domain (Homo sapiens, UniProt P62993); test: FP saturation binding assay
Sequence of GRB2 SH2 domain (P62993 60-152 limits assumed): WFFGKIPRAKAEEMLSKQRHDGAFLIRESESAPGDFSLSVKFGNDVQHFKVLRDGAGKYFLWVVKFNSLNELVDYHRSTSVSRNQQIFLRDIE

SH2 and PTB domains [6] = molecular target: T4, SH2 and PTB domains (Homo sapiens, UniProt Q8IZW8); test: In-house protein microarrays (with or without 5 mM DTT), protein named per line; format: binding; conditions: protein TNS4; PM assay replicate # 39307; array fabrication # 39286
T4 construct: thioredoxin; made in house; host or cells: BL21(DE3)pLysS E. coli
T4 sequence (Q8IZW8 19-715): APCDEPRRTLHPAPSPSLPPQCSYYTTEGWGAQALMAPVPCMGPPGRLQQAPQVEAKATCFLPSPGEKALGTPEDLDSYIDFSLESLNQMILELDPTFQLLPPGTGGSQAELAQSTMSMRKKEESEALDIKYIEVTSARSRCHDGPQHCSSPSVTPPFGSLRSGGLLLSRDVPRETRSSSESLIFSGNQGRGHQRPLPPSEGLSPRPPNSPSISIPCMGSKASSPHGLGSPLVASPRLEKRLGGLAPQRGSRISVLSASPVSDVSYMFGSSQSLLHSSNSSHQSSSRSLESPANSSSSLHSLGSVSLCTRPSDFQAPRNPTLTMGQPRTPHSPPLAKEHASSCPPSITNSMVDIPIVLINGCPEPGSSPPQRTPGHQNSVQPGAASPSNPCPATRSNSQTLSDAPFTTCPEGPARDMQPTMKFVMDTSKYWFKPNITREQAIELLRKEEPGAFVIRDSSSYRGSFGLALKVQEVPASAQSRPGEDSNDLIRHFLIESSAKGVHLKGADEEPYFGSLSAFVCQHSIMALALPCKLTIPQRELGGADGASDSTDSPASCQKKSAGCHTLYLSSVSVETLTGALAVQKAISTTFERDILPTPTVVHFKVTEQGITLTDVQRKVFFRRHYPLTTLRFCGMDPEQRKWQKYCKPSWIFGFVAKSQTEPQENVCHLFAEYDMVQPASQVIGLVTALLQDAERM
In short: as §1

GRB7 SH2 domain = GRB7 SH2 domain (Homo sapiens, UniProt Q14451); set-up: 6X His; thioredoxin; made in house; host or cells: E. coli BL21(DE3)pLysS; conditions: previous protein microarray data, Figure S5; cited from earlier work
Sequence of GRB7 SH2 domain (Q14451 431-527 limits assumed): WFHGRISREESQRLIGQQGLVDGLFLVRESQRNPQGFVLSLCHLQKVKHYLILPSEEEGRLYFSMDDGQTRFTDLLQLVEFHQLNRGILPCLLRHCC

Sequence of VAV2 SH2 domain (P52735 673-767 limits assumed): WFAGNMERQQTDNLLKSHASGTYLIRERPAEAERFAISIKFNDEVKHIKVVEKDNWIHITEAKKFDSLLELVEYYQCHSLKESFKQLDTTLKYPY
Sequence of SH2D2A SH2 domain (Q9NP31 95-186 limits assumed): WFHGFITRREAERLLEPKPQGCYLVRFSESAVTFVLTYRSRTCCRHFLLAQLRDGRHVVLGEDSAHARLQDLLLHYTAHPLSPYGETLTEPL
Sequence of PIK3R2-N SH2 domain (O00459 330-425 limits assumed): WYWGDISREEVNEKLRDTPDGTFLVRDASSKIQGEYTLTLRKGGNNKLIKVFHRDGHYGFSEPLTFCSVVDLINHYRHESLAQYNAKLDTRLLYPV

For CC(C)C[C@H](NC(=O)[C@H](Cc1ccc(OP(=O)(O)O)cc1)NC(=O)[C@H](CCC(=O)O)NC(=O)[C@H](CCC(=O)O)NC(=O)[C@H](C)NC(=O)[C@@H](N)CC(=O)O)C(=O)N[C@H](C(=O)N1CCC[C@H]1C(=O)N[C@@H](CCC(N)=O)C(=O)N[C@@H](CCC(N)=O)C(=O)NCC(=O)N[C@@H](Cc1ccccc1)C(=O)N[C@@H](CC(=O)O)C(=O)O)C(C)C [ErbB2 1023 13-mer] (HELM PEPTIDE1{D.A.E.E.[O=C([C@H](Cc1ccc(OP(=O)(O)O)cc1)N[*:1])[*:2]].L.V.P.Q.Q.G.F.D}$$$$V2.0), the Kd (VAV2 SH2 domain) was 9.9 µM.

For CC(C)[C@H](NC(=O)[C@H](CC(=O)O)NC(=O)[C@@H]1CCCN1C(=O)[C@H](CCC(N)=O)NC(=O)[C@H](CC(N)=O)NC(=O)[C@@H](NC(=O)[C@H](Cc1ccc(OP(=O)(O)O)cc1)NC(=O)[C@H](CCC(=O)O)NC(=O)[C@@H]1CCCN1C(=O)[C@H](CCC(N)=O)NC(=O)[C@@H]1CCCN1)C(C)C)C(=O)N[C@@H](CCCNC(=N)N)C(=O)N[C@@H](CC(=O)O)C(=O)O [ErbB2 1139 13-mer] (HELM PEPTIDE1{P.Q.P.E.[O=C([C@H](Cc1ccc(OP(=O)(O)O)cc1)N[*:1])[*:2]].V.N.Q.P.D.V.R.D}$$$$V2.0), the Kd (PIK3R2-N SH2 domain) was 2.2 µM, the Kd (SH2D2A SH2 domain) was 4.8 µM and the Kd (PLCG1-N SH2 domain) was 11.8 µM.

Work on CC(C)C[C@H](NC(=O)[C@H](CC(N)=O)NC(=O)[C@@H](N)CC(=O)O)C(=O)N[C@@H](Cc1ccc(O)cc1)C(=O)N[C@@H](Cc1ccc(OP(=O)(O)O)cc1)C(=O)N[C@@H](Cc1c[nH]c2ccccc12)C(=O)N[C@@H](CC(=O)O)C(=O)N[C@@H](CCC(N)=O)C(=O)N[C@@H](CC(=O)O)C(=O)N1CCC[C@H]1C(=O)N1CCC[C@H]1C(=O)N[C@@H](CCC(=O)O)C(=O)N[C@@H](CC(=O)O)C(=O)O [ErbB2 1222 13-mer] (HELM PEPTIDE1{D.N.L.Y.[O=C([C@H](Cc1ccc(OP(=O)(O)O)cc1)N[*:1])[*:2]].W.D.Q.D.P.P.E.D}$$$$V2.0) yielded a Kd (BLK SH2 domain) of 10.9 µM, a Kd [1] of 6.4 µM and a Kd (LCP2 SH2 domain) of 11.7 µM.

With CC(C)C[C@H](NC(=O)[C@@H]1CCCN1C(=O)[C@H](C)NC(=O)[C@@H](NC(=O)[C@H](Cc1ccc(OP(=O)(O)O)cc1)NC(=O)CNC(=O)[C@H](CC(=O)O)NC(=O)[C@@H](NC(=O)[C@@H](N)CCC(=O)O)[C@@H](C)O)C(C)C)C(=O)N[C@H](C(=O)N[C@@H](CS)C(=O)N[C@@H](CO)C(=O)N[C@@H](CC(=O)O)C(=O)O)[C@@H](C)O [ErbB2 pY1127] the “Kd” value (SH2 and PTB domains [2]; PM assay replicate # 39336, array fabrication # 39329) was 0.80 µM, the “Kd” value (SH2 and PTB domains [2]; PM assay replicate # 39337, array fabrication # 39329) was 1.61 µM and the “Kd” value (SH2 and PTB domains [2]; PM assay replicate # 39603, array fabrication # 39392) was 0.13 µM. For the same molecule, the “Kd” value (SH2 and PTB domains [3]; PM assay replicate # 39336) was 1.53 µM, the “Kd” value (SH2 and PTB domains [3]; PM assay replicate # 39337) was 1.15 µM and the “Kd” value (SH2 and PTB domains [4]; PM assay replicate # 39336) was 0.19 µM. For the same molecule, the “Kd” value (SH2 and PTB domains [4]; PM assay replicate # 39337) was 0.09 µM.

CSCC[C@H](NC(=O)[C@H](Cc1ccc(OP(=O)(O)O)cc1)NC(=O)[C@H](CCC(=O)O)NC(=O)[C@H](Cc1ccc(O)cc1)NC(=O)CNC(=O)[C@@H](N)CC(C)C)C(=O)N[C@@H](CC(=O)O)C(=O)N[C@H](C(=O)NCC(=O)N[C@@H](CO)C(=O)N[C@@H](CC(=O)O)C(=O)N[C@@H](CC(C)C)C(=O)N[C@@H](CC(=O)O)C(=O)O)C(C)C [ErbB3 1224 13-mer] (HELM PEPTIDE1{L.G.Y.E.[O=C([C@H](Cc1ccc(OP(=O)(O)O)cc1)N[*:1])[*:2]].M.D.V.G.S.D.L.D}$$$$V2.0) gave a Kd (BLNK SH2 domain) of 3.63 µM and a Kd (NCK2 SH2 domain) of 4.6 µM.

Molecule CSCC[C@H](NC(=O)[C@H](Cc1ccc(OP(=O)(O)O)cc1)NC(=O)CNC(=O)[C@H](CCC(=O)O)NC(=O)[C@H](CCC(=O)O)NC(=O)[C@H](CC(=O)O)NC(=O)[C@H](CC(C)C)NC(=O)[C@H](CCC(=O)O)NC(=O)CNC(=O)[C@H](CCCNC(=N)N)NC(=O)[C@@H]1CCCN1)C(=O)N[C@H](C(=O)N1CCC[C@H]1C(=O)N[C@@H](CCSC)C(=O)N[C@@H](CCCNC(=N)N)C(=O)N[C@@H](CC(=O)O)C(=O)N[C@@H](CCCCN)C(=O)N[C@@H](CC(=O)O)C(=O)O)[C@@H](C)O [ErbB4 1150 18-mer] (HELM PEPTIDE1{P.R.G.E.L.D.E.E.G.[O=C([C@H](Cc1ccc(OP(=O)(O)O)cc1)N[*:1])[*:2]].M.T.P.M.R.D.K.D}$$$$V2.0) has a Kd (VAV1 SH2 domain) of 0.86 µM and a Kd [5] of 6.19 µM.

Molecule CC(C)C[C@H](NC(=O)[C@H](Cc1ccc(OP(=O)(O)O)cc1)NC(=O)[C@H](CC(C)C)NC(=O)[C@@H]1CCCN1C(=O)[C@H](CCC(=O)O)NC(=O)[C@H](CC(N)=O)NC(=O)[C@@H](NC(=O)[C@H](Cc1ccc(O)cc1)NC(=O)[C@H](CCC(=O)O)NC(=O)[C@H](CC(=O)O)NC(=O)[C@@H](N)CCC(=O)O)C(C)C)C(=O)N[C@@H](CC(N)=O)C(=O)N[C@H](C(=O)N[C@@H](Cc1ccccc1)C(=O)N[C@@H](C)C(=O)N[C@@H](CC(N)=O)C(=O)N[C@H](C(=O)N[C@@H](CC(=O)O)C(=O)O)[C@@H](C)O)[C@@H](C)O [ErbB4 1208 18-mer] (HELM PEPTIDE1{E.D.E.Y.V.N.E.P.L.[O=C([C@H](Cc1ccc(OP(=O)(O)O)cc1)N[*:1])[*:2]].L.N.T.F.A.N.T.D}$$$$V2.0) has a Kd (SHC1 SH2 domain) of 11 µM, a Kd (STAP1 SH2 domain) of 10.1 µM and a Kd (GRB2 SH2 domain) of 2.46 µM.

With CC[C@H](C)[C@H](NC(=O)[C@H](CC(N)=O)NC(=O)[C@H](CC(N)=O)NC(=O)[C@H](CCCCN)NC(=O)[C@H](CC(C)C)NC(=O)[C@H](Cc1ccc(OP(=O)(O)O)cc1)NC(=O)[C@H](CCC(=O)O)NC(=O)[C@H](C)NC(=O)[C@H](CCCCN)NC(=O)CNC(=O)[C@H](CC(C)C)NC(=O)[C@@H](NC(=O)[C@H](CC(N)=O)NC(=O)[C@H](C)NC(=O)[C@@H](N)Cc1ccccc1)[C@@H](C)O)C(=O)N[C@@H](CC(C)C)C(=O)N[C@@H](CO)C(=O)N[C@@H](CC(=O)O)C(=O)O [ErbB4 pY1221 (18-mer)] (HELM PEPTIDE1{F.A.N.T.L.G.K.A.E.[O=C([C@H](Cc1ccc(OP(=O)(O)O)cc1)N[*:1])[*:2]].L.K.N.N.I.L.S.D}$$$$V2.0) the “Kd” value (SH2 and PTB domains [6]) was 0.32 µM.

For “DNLYpYWDQDPPEd [ErbB2 pY1222, N-terminally rhodamine-labeled 13-mer phosphopeptide]”, the “interaction with GRB7 on the PM platform” value (GRB7 SH2 domain) is given as “only displayed interactions with GRB7 from the PM platform”.
